Assay results: US10240255B2 (priority 2007, dated 2019)

Tests used:
[1] = tested on: BioMAP® systems (primary human cells); type: cell-based
[2] = tested on: endothelial cells and PBMC

In the case of CO/C(=C/C(N)=O)[C@H](C)[C@H](/C=C/c1csc(-c2csc([C@@H](C)/C=C/C=C/C(C)C)n2)n1)OC [Myxothiazol], the IL1 level [1] was “upregulation”, the MCP1 level [1] was “inhibition” and the T cell activation [1] was “inhibition”. For the same compound, the VCAM level [1] was “upregulation” and the proliferation [1] was “inhibition”.
For COC[C@H]1OC(=O)c2coc3c2[C@@]1(C)C1=C(C3=O)[C@@H]2CCC(=O)[C@@]2(C)C[C@H]1OC(C)=O [Wortmannin], the cytotoxicity [2] was “not cytotoxic”.
With C=C(CC)C(=O)c1ccc(OCC(=O)O)c(Cl)c1Cl [ethacrynic acid] the E-selectin level ([2]; 10 μM) was “inhibition”, the HLA-DR level ([2]; 10 μM) was “inhibition” and the PBMC proliferation ([2]; 10 μM) was “inhibition”. The T cell activation ([2]; 10 μM) was “inhibition”, the VCAM level ([2]; 10 μM) was “inhibition” and the monocyte activation ([2]; 10 μM) was “inhibition”.
